Structures can show the parent of a compound that is named as a salt.

T1 sequence (P37288 whole entry): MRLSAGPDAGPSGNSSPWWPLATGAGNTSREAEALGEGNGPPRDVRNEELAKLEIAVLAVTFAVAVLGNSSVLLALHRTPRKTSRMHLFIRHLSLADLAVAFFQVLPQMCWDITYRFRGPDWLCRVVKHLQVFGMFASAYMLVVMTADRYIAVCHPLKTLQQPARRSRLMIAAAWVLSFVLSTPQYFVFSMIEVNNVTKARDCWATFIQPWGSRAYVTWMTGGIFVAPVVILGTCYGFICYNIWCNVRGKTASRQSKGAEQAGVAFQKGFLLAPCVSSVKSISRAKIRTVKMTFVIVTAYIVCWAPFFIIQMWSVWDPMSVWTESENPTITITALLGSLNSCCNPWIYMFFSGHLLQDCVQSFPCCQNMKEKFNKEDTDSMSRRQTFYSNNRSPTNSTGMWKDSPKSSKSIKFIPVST

This test concerns the target T1, human V1a receptor (Homo sapiens, UniProt P37288).
T1 construct: expressed in transfected cells; host or cells: HEK293 cells, transiently transfected; cell membranes
Description: human V1a receptor binding (3H-Vasopressin SPA, HEK293 membranes). As to conditions: displacement of 4 nM 3H-Vasopressin, membranes of HEK293 cells transiently transfected with human V1a receptor; Ki from IC50 by Cheng-Prussoff. The procedure, abridged: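 Transiently transfected HEK293 membranes on yttrium silicate SPA beads in Tris binding buffer (120 mM NaCl, 5 mM KCl, 2 mM CaCl2, 10 mM MgCl2). 3H-vasopressin added as 4 nM working solution; excess cold vasopressin set non-specific binding. 1 h at room temperature, then counting; Ki from fitted IC50 via Cheng-Prusoff.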
In the case of `N#CCCn1cc(C(=O)N2CCC3(CC2)OC(=O)c2cc(F)ccc23)c2ccc(Cl)cc21` [Example 175, 3-{6-Chloro-3-[(5-fluoro-3-oxo-1′H,3H-spiro[2-benzofuran-1,4′-piperidin]-1′-yl)carbonyl]-1H-indol-1-yl}propanenitrile], the affinity, expressed as Ki, was 2.5 nM. The same measure for `O=C1OC2(CCN(C(=O)c3c4n(c5cc(Cl)ccc35)CCNC4=O)CC2)c2ccc(F)cc21` [Example 176, 1′-[(7-Chloro-1-oxo-1,2,3,4-tetrahydropyrazino[1,2-a]indol-10-yl)carbonyl]-5-fluoro-3H-spiro[2-benzofuran-1,4′-piperidin]-3-one]: 14.8 nM; for `O=C1OC2(CCN(C(=O)c3cn(CC4CN(Cc5ccccc5)CCO4)c4cc(Cl)ccc34)CC2)c2ccc(F)cc21` (stereo not shown) [Example 177, 1′-({1-[(4-Benzylmorpholin-2-yl)methyl]-6-chloro-1H-indol-3-yl}carbonyl)-5-fluoro-3H-spiro[2-benzofuran-1,4′-piperidin]-3-one]: 6.9 nM. Then `Cc1cc(Cn2cc(C(=O)N3CCC4(CC3)OC(=O)c3cc(F)ccc34)c3ccc(Cl)cc32)no1` [Example 179, 1′-({6-Chloro-1-[(5-methylisoxazol-3-yl)methyl]-1H-indol-3-yl}carbonyl)-5-fluoro-3H-spiro[2-benzofuran-1,4′-piperidin]-3-one], with 3.1 nM; and `O=C1OC2(CCN(C(=O)c3cn(Cc4ccccn4)c4cc(Cl)ccc34)CC2)c2ccccc21` [Example 180, 1′-{[6-Chloro-1-(pyridin-2-ylmethyl)-1H-indol-3-yl]carbonyl}-3H-spiro[2-benzofuran-1,4′-piperidin]-3-one], with 1.5 nM; and `Cc1nc(Cn2cc(C(=O)N3CCC4(CC3)OC(=O)c3cc(F)ccc34)c3ccc(Cl)cc32)c(C2CC2)o1` [Example 182, 1′-({6-Chloro-1-[(5-cyclopropyl-2-methyl-1,3-oxazol-4-yl)methyl]-1H-indol-3-yl}carbonyl)-5-fluoro-3H-spiro[2-benzofuran-1,4′-piperidin]-3-one], with 4 nM. `Cn1cncc1Cn1cc(C(=O)N2CCC3(CC2)OC(=O)c2cc(F)ccc23)c2ccc(Cl)cc21` [Example 183, 1′-({6-Chloro-1-[(1-methyl-1H-imidazol-5-yl)methyl]-1H-indol-3-yl}carbonyl)-5-fluoro-3H-spiro[2-benzofuran-1,4′-piperidin]-3-one] displayed a Ki of 5.2 nM.

For the molecule `Cc1cc(Cn2cc(C(=O)N3CCC4(CC3)OC(=O)c3cc(F)ccc34)c3ccc(Cl)cc32)on1` [Example 184, 1′-({6-Chloro-1-[(3-methylisoxazol-5-yl)methyl]-1H-indol-3-yl}carbonyl)-5-fluoro-3H-spiro[2-benzofuran-1,4′-piperidin]-3-one], the inhibition constant Ki was found to be 3.4 nM.

On to `Cc1cc(Cn2cc(C(=O)N3CCC4(CC3)OC(=O)c3cc(F)ccc34)c3ccc(Cl)cc32)nn1C` [Example 185, 1′-({6-Chloro-1-[(1,5-dimethyl-1H-pyrazol-3-yl)methyl]-1H-indol-3-yl}carbonyl)-5-fluoro-3H-spiro[2-benzofuran-1,4′-piperidin]-3-one], for which affinity was put at a Ki of 2.2 nM. Consider `Cc1noc(C)c1Cn1cc(C(=O)N2CCC3(CC2)OC(=O)c2cc(F)ccc23)c2ccc(Cl)cc21` [Example 186, 1′-({6-Chloro-1-[(3,5-dimethylisoxazol-4-yl)methyl]-1H-indol-3-yl}carbonyl)-5-fluoro-3H-spiro[2-benzofuran-1,4′-piperidin]-3-one], for which the affinity corresponds to a Ki of 2.9 nM. The same measure for `Cc1nc(Cn2cc(C(=O)N3CCC4(CC3)OC(=O)c3cc(F)ccc34)c3ccc(Cl)cc32)c(C)o1` [Example 187, 1′-({6-Chloro-1-[(2,5-dimethyl-1,3-oxazol-4-yl)methyl]-1H-indol-3-yl}carbonyl)-5-fluoro-3H-spiro[2-benzofuran-1,4′-piperidin]-3-one]: 3.6 nM. The same measure for `O=C1OC2(CCN(C(=O)c3cn(CC4(F)COC4)c4cc(Cl)ccc34)CC2)c2ccc(F)cc21` [Example 188, 1′-({6-Chloro-1-[(3-fluorooxetan-3-yl)methyl]-1H-indol-3-yl}carbonyl)-5-fluoro-3H-spiro[2-benzofuran-1,4′-piperidin]-3-one]: 1.6 nM; for `O=C1OC2(CCN(C(=O)c3cn(CC4(F)COC4)c4cc(Cl)ccc34)CC2)c2ccccc21` [Example 189, 1′-({6-Chloro-1-[(3-fluorooxetan-3-yl)methyl]-1H-indol-3-yl}carbonyl)-3H-spiro[2-benzofuran-1,4′-piperidin]-3-one]: 1.7 nM. For the molecule `COCC1(Cn2cc(C(=O)N3CCC4(CC3)OC(=O)c3cc(F)ccc34)c3ccc(Cl)cc32)CC1` [Example 190, 1′-[(6-Chloro-1-{[1-(methoxymethyl)cyclopropyl]methyl}-1H-indol-3-yl)carbonyl]-5-fluoro-3H-spiro[2-benzofuran-1,4′-piperidin]-3-one], the affinity corresponds to a Ki of 2.6 nM.

`N#CCC1(Cn2cc(C(=O)N3CCC4(CC3)OC(=O)c3cc(F)ccc34)c3ccc(Cl)cc32)CC1` [Example 191, [1-({6-Chloro-3-[(5-fluoro-3-oxo-1′H,3H-spiro[2-benzofuran-1,4′-piperidin]-1′-yl)carbonyl]-1H-indol-1-yl}methyl)cyclopropyl]acetonitrile] came in with a Ki of 2.8 nM. `COCC1(Cn2cc(C(=O)N3CCC4(CC3)OC(=O)c3ccccc34)c3ccc(Cl)cc32)CC1` [Example 192, 1′-[(6-Chloro-1-{[1-(methoxymethyl)cyclopropyl]methyl}-1H-indol-3-yl)carbonyl]-3H-spiro[2-benzofuran-1,4′-piperidin]-3-one]: the Ki came out at 2.4 nM. Then `N#CCC1(Cn2cc(C(=O)N3CCC4(CC3)OC(=O)c3ccccc34)c3ccc(Cl)cc32)CC1` [Example 193, [1-({6-Chloro-3-[(3-oxo-1′H,3H-spiro[2-benzofuran-1,4′-piperidin]-1′-yl)carbonyl]-1H-indol-1-yl}methyl)cyclopropyl]acetonitrile], with 2.1 nM; and `CNCCNC(=O)c1[nH]c2cc(Cl)ccc2c1C(=O)N1CCC2(CC1)OC(=O)c1cc(F)ccc12` [Example 194, 6-Chloro-3-[(5-fluoro-3-oxo-1′H,3H-spiro[2-benzofuran-1,4′-piperidin]-1′-yl)carbonyl]-N-[2-(methylamino)ethyl]-1H-indole-2-carboxamide hydrochloride], with 15.1 nM.

Regarding `O=C1OC2(CCN(C(=O)c3cn(CCC4CCOCC4)c4cc(Cl)ccc34)CC2)c2ccc(F)cc21` [Example 195, 1′-({6-Chloro-1-[2-(tetrahydro-2H-pyran-4-yl)ethyl]-1H-indol-3-yl}carbonyl)-5-fluoro-3H-spiro[2-benzofuran-1,4′-piperidin]-3-one hydrochloride], the Ki amounted to 2.1 nM. This Ki lies about 7.2-fold lower than the previous one. For `O=C1OC2(CCN(C(=O)c3cn(CCC4CCOCC4)c4cc(Cl)ccc34)CC2)c2ccccc21` [Example 196, 1′-({6-Chloro-1-[2-(tetrahydro-2H-pyran-4-yl)ethyl]-1H-indol-3-yl}carbonyl)-3H-spiro[2-benzofuran-1,4′-piperidin]-3-one], the Ki was found to be 1.4 nM. The same measure for `CC(C)(C)OC(=O)N1CCOC(Cn2cc(C(=O)N3CCC4(CC3)OC(=O)c3ccccc34)c3ccc(Cl)cc32)C1` (stereo not shown) [Example 197, tert-Butyl 2-({6-chloro-3-[(3-oxo-1′H,3H-spiro[2-benzofuran-1,4′-piperidin]-1′-yl)carbonyl]-1H-indol-1-yl}methyl)morpholine-4-carboxylate]: 3 nM; for `O=C1OC2(CCN(C(=O)c3cn(CC4CNCCO4)c4cc(Cl)ccc34)CC2)c2ccccc21` (stereo not shown) [Example 198, 1′-{[6-Chloro-1-(morpholin-2-ylmethyl)-1H-indol-3-yl]carbonyl}-3H-spiro[2-benzofuran-1,4′-piperidin]-3-one hydrochloride]: 3.3 nM.

With `CC(C)(C)OC(=O)N1CCOC(Cn2cc(C(=O)N3CCC4(CC3)OC(=O)c3cc(F)ccc34)c3ccc(Cl)cc32)C1` (stereo not shown) [Example 199, tert-Butyl 2-({6-chloro-3-[(5-fluoro-3-oxo-1′H,3H-spiro[2-benzofuran-1,4′-piperidin]-1′-yl)carbonyl]-1H-indol-1-yl}methyl)morpholine-4-carboxylate], the affinity corresponds to a Ki of 3.3 nM.

For `O=C1OC2(CCN(C(=O)c3cn(CC4CNCCO4)c4cc(Cl)ccc34)CC2)c2ccc(F)cc21` (stereo not shown) [Example 200, 1′-{[6-Chloro-1-(morpholin-2-ylmethyl)-1H-indol-3-yl]carbonyl}-5-fluoro-3H-spiro[2-benzofuran-1,4′-piperidin]-3-one dihydrochloride], the Ki turned out to be 5.8 nM. Regarding `O=C1OC2(CCN(C(=O)c3cn(Cc4cc(F)cc(F)c4)c4ccccc34)CC2)c2ccc(F)cc21` [Example 201, 1′-{[1-(3,5-Difluorobenzyl)-1H-indol-3-yl]carbonyl}-5-fluoro-3H-spiro[2-benzofuran-1,4′-piperidin]-3-one], the Ki worked out at 4.6 nM. The molecule `O=C1OC2(CCN(C(=O)c3cn(Cc4cc(F)cc(F)c4)c4ccccc34)CC2)c2ccccc21` [Example 202, 1′-{[1-(3,5-Difluorobenzyl)-1H-indol-3-yl]carbonyl}-3H-spiro[2-benzofuran-1,4′-piperidin]-3-one] came in with a Ki of 4.3 nM. The molecule `CCN(CC)C(=O)Cn1cc(C(=O)N2CCC3(CC2)OC(=O)c2ccccc23)c2ccccc21` [Example 203, N,N-Diethyl-2-{3-[(3-oxo-1′H,3H-spiro[2-benzofuran-1,4′-piperidin]-1′-yl)carbonyl]-1H-indol-1-yl}acetamide] yielded a Ki of 11.7 nM. The same measure for `O=C(Cn1cc(C(=O)N2CCC3(CC2)OCc2ccccc23)c2ccc(Cl)cc21)N1CCCCC1` [Example 204, 1′-{[6-Chloro-1-(2-oxo-2-piperidin-1-ylethyl)-1H-indol-3-yl]carbonyl}-3H-spiro[2-benzofuran-1,4′-piperidine]]: 1.1 nM.

Broadly, the Ki is the dissociation constant of the complex between target and ligand, obtained from inhibition or displacement. Higher therefore signals lower affinity.

Source of the values: patent publication US7332501B2, “Indol-3-yl-carbonyl-spiro-piperidine derivatives as V1a receptor antagonists” (Hoffmann-La Roche Inc., priority 2005, dated 2008).
